Results: ChEMBL document CHEMBL1201862, “PubChem BioAssay data set” (2004)
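Following 48 hours of exposure in 96-well plates, responses at five concentrations were used to interpolate endpoints linearly. GI50 = concentration required for 50% inhibition of growth.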 Active and inactive are the calls of the source. No stated cut-off is given here; in the data, active = GI50 up to about 1.1 µM and inactive = higher.

Key:
Assay in all cases: NCI anticancer screen, dose series, 48 h
A498 = test system: A498
A549 = test system: A549
ACHN = test system: ACHN
BT-549 = test system: BT-549
CAKI-1 = test system: CAKI-1
CCRF-CEM = test system: CCRF-CEM
COLO 205 = test system: COLO 205
DU-145 = test system: DU-145
EKVX = test system: EKVX
HCC 2998 = test system: HCC 2998
HCT-116 = test system: HCT-116
HCT-15 = test system: HCT-15
HOP-62 = test system: HOP-62
HOP-92 = test system: HOP-92
HT-29 = test system: HT-29
Hs-578T = test system: Hs-578T
IGROV-1 = test system: IGROV-1
K562 = test system: K562
LOX IMVI = test system: LOX IMVI
M14 = test system: M14
MCF7 = test system: MCF7
MDA-MB-231 = test system: MDA-MB-231
MDA-MB-435 = test system: MDA-MB-435
MDA-N = test system: MDA-N
MOLT-4 = test system: MOLT-4
Malme-3M = test system: Malme-3M
NCI-H226 = test system: NCI-H226
NCI-H23 = test system: NCI-H23
NCI-H460 = test system: NCI-H460
NCI/ADR-RES = test system: NCI/ADR-RES
OVCAR-3 = test system: OVCAR-3
OVCAR-4 = test system: OVCAR-4
OVCAR-5 = test system: OVCAR-5
OVCAR-8 = test system: OVCAR-8
PC-3 = test system: PC-3
RPMI-8226 = test system: RPMI-8226
RXF 393 = test system: RXF 393
SF-268 = test system: SF-268
SF-295 = test system: SF-295
SF-539 = test system: SF-539
SK-MEL-28 = test system: SK-MEL-28
SK-MEL-2 = test system: SK-MEL-2
SK-MEL-5 = test system: SK-MEL-5
SK-OV-3 = test system: SK-OV-3
SN12C = test system: SN12C
SNB-19 = test system: SNB-19
SR = test system: SR
SW-620 = test system: SW-620
T47D = test system: T47D
TK-10 = test system: TK-10
U-251 = test system: U-251
UACC-257 = test system: UACC-257
UACC-62 = test system: UACC-62
UO-31 = test system: UO-31
786-0 = test system: 786-0
KM12 = test system: KM12
NCI-H522 = test system: NCI-H522
SNB-75 = test system: SNB-75

In the case of C/C=C1/CN2CC[C@@H]3c4ccccc4N4[C@H](C(=O)OC)[C@H]1C[C@H]2[C@]34/C=C/C1=COC[C@@H]2[C@H]1C[C@H]1c3c(c4ccccc4n3C)C[C@@H]2N1C, the GI50 (A498) is reported as 4.59 µM (inactive), the GI50 (A549) is reported as 4.16 µM (inactive) and the GI50 (ACHN) is reported as 4.03 µM (inactive). The GI50 (BT-549) was 4.32 µM (inactive), the GI50 (CAKI-1) was 4.1 µM (inactive) and the GI50 (CCRF-CEM) was 5.31 µM (inactive). For the same molecule, the GI50 (COLO 205) was 3.4 µM (inactive), the GI50 (DU-145) was 5.12 µM (inactive) and the GI50 (EKVX) was 2.99 µM (inactive). The GI50 (HCC 2998) was 0.345 µM (active), the GI50 (HCT-116) was 3.89 µM (inactive) and the GI50 (HCT-15) was 4.14 µM. The GI50 (HOP-62) was 3.82 µM (inactive), the GI50 (HOP-92) was 4.28 µM (inactive) and the GI50 (HT-29) was 2.77 µM (inactive). For the same molecule, the GI50 (Hs-578T) was 4.48 µM (inactive), the GI50 (IGROV-1) was 4.57 µM (inactive) and the GI50 (K562) was 6.15 µM (inactive). The GI50 (LOX IMVI) was 4.19 µM (inactive), the GI50 (M14) was 4.37 µM (inactive) and the GI50 (MCF7) was 4.55 µM (inactive). The GI50 (MDA-MB-231) was 4.02 µM (inactive), the GI50 (MDA-MB-435) was 3.26 µM (inactive) and the GI50 (MDA-N) was 2.32 µM (inactive). For the same molecule, the GI50 (MOLT-4) was 4.02 µM (inactive), the GI50 (Malme-3M) was 4.62 µM (inactive) and the GI50 (NCI-H226) was 4.5 µM (inactive). For the same molecule, the GI50 (NCI-H23) was 4.39 µM (inactive), the GI50 (NCI-H460) was 4.04 µM (inactive) and the GI50 (NCI/ADR-RES) was 3.46 µM (inactive). For the same molecule, the GI50 (OVCAR-3) was 4.33 µM (inactive), the GI50 (OVCAR-4) was 3.61 µM (inactive) and the GI50 (OVCAR-5) was 4.33 µM (inactive). The GI50 (OVCAR-8) was 4.11 µM (inactive), the GI50 (PC-3) was 2.9 µM (inactive) and the GI50 (RPMI-8226) was 4.09 µM (inactive). The GI50 (RXF 393) was 4.19 µM (inactive), the GI50 (SF-268) was 3.61 µM (inactive) and the GI50 (SF-295) was 4.45 µM (inactive). The GI50 (SF-539) was 4.15 µM (inactive), the GI50 (SK-MEL-28) was 5.15 µM (inactive) and the GI50 (SK-MEL-2) was 4.33 µM (inactive). The GI50 (SK-MEL-5) was 3.89 µM (inactive), the GI50 (SK-OV-3) was 4.57 µM (inactive) and the GI50 (SN12C) was 4.33 µM (inactive). The GI50 (SNB-19) was 3.64 µM (inactive), the GI50 (SR) was 6.1 µM (inactive) and the GI50 (SW-620) was 3.83 µM (inactive). For the same molecule, the GI50 (T47D) was 4.23 µM (inactive), the GI50 (TK-10) was 3.86 µM (inactive) and the GI50 (U-251) was 3.72 µM (inactive). For the same molecule, the GI50 (UACC-257) was 4.52 µM (inactive), the GI50 (UACC-62) was 4.86 µM (inactive) and the GI50 (UO-31) was 3.99 µM (inactive).
In the case of OC/C=C/[C@H](OCc1ccccc1)[C@H](/C=C/CO)OCc1ccccc1, the GI50 (786-0) is reported as 44.9 µM (inactive), the GI50 (A498) is reported as > 100 µM (inactive) and the GI50 (A549) is reported as 30.3 µM (inactive). The GI50 (ACHN) was 49.3 µM (inactive), the GI50 (BT-549) was 59.2 µM (inactive) and the GI50 (CAKI-1) was > 100 µM (inactive). For the same molecule, the GI50 (CCRF-CEM) was 20.1 µM (inactive), the GI50 (COLO 205) was 59.3 µM (inactive) and the GI50 (DU-145) was 81.1 µM (inactive). For the same molecule, the GI50 (EKVX) was 47.6 µM (inactive), the GI50 (HCC 2998) was 50.2 µM (inactive) and the GI50 (HCT-116) was 35.1 µM (inactive). For the same molecule, the GI50 (HCT-15) was 34.8 µM, the GI50 (HOP-62) was 49.7 µM (inactive) and the GI50 (HOP-92) was 45.4 µM (inactive). The GI50 (HT-29) was 24.3 µM (inactive), the GI50 (Hs-578T) was 47.4 µM (inactive) and the GI50 (IGROV-1) was 42.5 µM (inactive). The GI50 (K562) was 24.8 µM (inactive), the GI50 (KM12) was 41.8 µM (inactive) and the GI50 (LOX IMVI) was 20.4 µM (inactive). For the same molecule, the GI50 (M14) was 76.6 µM (inactive), the GI50 (MCF7) was 33.1 µM (inactive) and the GI50 (MDA-MB-231) was 50.4 µM (inactive). The GI50 (MDA-MB-435) was 40.1 µM (inactive), the GI50 (MDA-N) was 36 µM (inactive) and the GI50 (MOLT-4) was 13.7 µM (inactive). For the same molecule, the GI50 (Malme-3M) was > 100 µM (inactive), the GI50 (NCI-H226) was > 100 µM (inactive) and the GI50 (NCI-H23) was 47.8 µM (inactive). For the same molecule, the GI50 (NCI-H460) was 57.8 µM (inactive), the GI50 (NCI-H522) was 37.3 µM (inactive) and the GI50 (NCI/ADR-RES) was 32.4 µM (inactive). For the same molecule, the GI50 (OVCAR-3) was 39.7 µM (inactive), the GI50 (OVCAR-4) was 29.8 µM (inactive) and the GI50 (OVCAR-5) was > 100 µM (inactive). The GI50 (OVCAR-8) was 46.2 µM (inactive), the GI50 (PC-3) was 32.3 µM (inactive) and the GI50 (RPMI-8226) was 23.1 µM (inactive). The GI50 (RXF 393) was 9.06 µM (inactive), the GI50 (SF-268) was 40.2 µM (inactive) and the GI50 (SF-295) was 32.5 µM (inactive). The GI50 (SF-539) was > 100 µM (inactive), the GI50 (SK-MEL-28) was 35.8 µM (inactive) and the GI50 (SK-MEL-2) was 37.4 µM (inactive). The GI50 (SK-MEL-5) was 27.9 µM (inactive), the GI50 (SK-OV-3) was > 100 µM (inactive) and the GI50 (SN12C) was 47.8 µM (inactive). The GI50 (SNB-19) was 31.2 µM (inactive), the GI50 (SNB-75) was 32.7 µM (inactive) and the GI50 (SR) was 18.8 µM (inactive). For the same molecule, the GI50 (SW-620) was 39.9 µM (inactive), the GI50 (T47D) was 23.7 µM (inactive) and the GI50 (TK-10) was 73.1 µM (inactive). The GI50 (U-251) was 24.5 µM (inactive), the GI50 (UACC-257) was 75.2 µM (inactive) and the GI50 (UACC-62) was 80 µM (inactive). For the same molecule, the GI50 (UO-31) was 64.1 µM (inactive).
